Experimental data: patent publication US11299461B2 (priority 2018, dated 2022)

target: LF 263-C catalytic domain (anthrax lethal factor) (Bacillus anthracis, UniProt P15917); experiment: biochemical
Sequence (P15917 296-809 limits assumed): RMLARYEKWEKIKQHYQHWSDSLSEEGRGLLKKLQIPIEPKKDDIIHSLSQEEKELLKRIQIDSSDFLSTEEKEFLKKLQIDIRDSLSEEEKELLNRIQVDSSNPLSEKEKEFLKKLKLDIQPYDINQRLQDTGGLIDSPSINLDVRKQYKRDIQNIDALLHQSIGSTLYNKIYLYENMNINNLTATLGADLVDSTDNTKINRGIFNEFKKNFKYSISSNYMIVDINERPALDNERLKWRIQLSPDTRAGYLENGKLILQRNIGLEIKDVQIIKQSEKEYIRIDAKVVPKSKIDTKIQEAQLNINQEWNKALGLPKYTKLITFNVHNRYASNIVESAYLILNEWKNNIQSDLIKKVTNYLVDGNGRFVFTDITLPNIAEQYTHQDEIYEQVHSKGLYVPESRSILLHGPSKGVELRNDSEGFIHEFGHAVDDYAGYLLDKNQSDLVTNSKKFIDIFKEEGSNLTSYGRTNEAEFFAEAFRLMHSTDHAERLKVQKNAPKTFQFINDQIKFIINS

Question: For `CO[C@H](C[C@H](CCCCN[C@@H](c1ccc(Cl)cn1)C(C)C)C(=O)NO)c1ccc(F)cc1` [Compound 51, (S)-6-(((R)-1-(5-chloropyridin-2-yl)-2-methylpropyl)amino)-2-((R)-2-(4-fluorophenyl)-2-methoxyethyl)-N-hydroxyhexanamide], which Ki is on record?
Answer: 0.54 nM

Question: `CO[C@H](C[C@H](CCCCN[C@@H](c1ccc(Cl)cn1)C(C)C)C(=O)NO)c1ccc(F)c(C)c1` [Compound 58, (S)-6-(((R)-1-(5-chloropyridin-2-yl)-2-methylpropyl)amino)-2-((R)-2-(4-fluoro-3-methylphenyl)-2-methoxyethyl)-N-hydroxyhexanamide] was tested. Which Ki did it give?
Answer: 2.3 nM

Question: `Cc1ccc([C@@H](CO)NCCCC[C@@H](Nc2cc(C)c(F)c(C)c2)C(=O)NO)nc1` [Compound 1, (R)-2-((4-fluoro-3,5-dimethylphenyl)amino)-N-hydroxy-6-(((S)-2-hydroxy-1-(5-methylpyridin-2-yl)ethyl)amino)hexanamide] was tested. Which Ki did it give?
Answer: 0.17 nM

Question: For `CO[C@H](C[C@H](CCCCN[C@@H](c1ccc(F)c(C)n1)C(C)C)C(=O)NO)c1ccc(F)cc1` [Compound 50, (S)-6-(((R)-1-(5-fluoro-6-methylpyridin-2-yl)-2-methylpropyl)amino)-2-((R)-2-(4-fluorophenyl)-2-methoxyethyl)-N-hydroxyhexanamide], which Ki is on record?
Answer: 2.7 nM

Question: `CO[C@H](C[C@H](CCCCNCc1ccc(Cl)cn1)C(=O)NO)c1ccc(F)cc1` [Compound 41, (S)-6-(((5-chloropyridin-2-yl)methyl)amino)-2-((R)-2-(4-fluorophenyl)-2-methoxyethyl)-N-hydroxyhexanamide] was tested. Which Ki did it give?
Answer: 2.2 nM

Question: With `Cc1ccc([C@@H](C)NCCCC[C@@H](Cc2cc(C)c(F)c(C)c2)C(=O)NO)nc1` [Compound 11, (S)-2-(4-fluoro-3,5-dimethylbenzyl)-N-hydroxy-6-(((R)-1-(5-methylpyridin-2-yl)ethyl)amino)hexanamide] as the molecule, how does the Ki read?
Answer: 0.08 nM

Question: For `Cc1cc(C[C@H](CCCCN(C)Cc2ccc(F)cn2)C(=O)NO)cc(C)c1F` [Compound 18, (S)-2-(4-fluoro-3,5-dimethylbenzyl)-6-(((5-fluoropyridin-2-yl)methyl)(methyl)amino)-N-hydroxyhexanamide], which Ki is on record?
Answer: 1.6 nM

Question: Which Ki does the source give for `Cc1cc(N[C@H](CCCCN[C@@H](c2ccc(Cl)cn2)C(C)C)C(=O)NO)cc(C)c1F` [Compound 4, (R)-6-(((R)-1-(5-chloropyridin-2-yl)-2-methylpropyl)amino)-2-((4-fluoro-3,5-dimethylphenyl)amino)-N-hydroxyhexanamide] here?
Answer: 0.45 nM

Question: `Cc1cc(C[C@H](CCCCN[C@@H](C)c2ccc(F)cn2)C(=O)NO)cc(C)c1F` [Compound 24, (S)-2-(4-fluoro-3,5-dimethylbenzyl)-6-(((S)-1-(5-fluoropyridin-2-yl)ethyl)amino)-N-hydroxyhexanamide] was tested. Which Ki did it give?
Answer: 0.44 nM

Question: `CO[C@H](C[C@H](CCCCN[C@H](CO)c1ccc(F)cn1)C(=O)NO)c1ccc(F)cc1` [Compound 39, (S)-2-((R)-2-(4-fluorophenyl)-2-methoxyethyl)-6-(((S)-1-(5-fluoropyridin-2-yl)-2-hydroxyethyl)amino)-N-hydroxyhexanamide] was tested. Which Ki did it give?
Answer: 1.7 nM

Question: How did the Ki turn out when `COc1ccc(CN(C)CCCC[C@@H](Cc2cc(C)c(F)c(C)c2)C(=O)NO)nc1` [Compound 19, (S)-2-(4-fluoro-3,5-dimethylbenzyl)-N-hydroxy-6-(((5-methoxypyridin-2-yl)methyl)(methyl)amino)hexanamide] was run?
Answer: 1.4 nM

Question: Which Ki does the source give for `CC[C@@H](NCCCC[C@@H](Nc1cc(C)c(F)c(C)c1)C(=O)NO)c1ncc(F)cc1F` [Compound 5, (R)-6-(((R)-1-(3,5-difluoropyridin-2-yl)propyl)amino)-2-((4-fluoro-3,5-dimethylphenyl)amino)-N-hydroxyhexanamide] here?
Answer: 0.39 nM

Question: For `COc1ccc([C@@H](C)NCCCC[C@@H](Cc2cc(C)c(F)c(C)c2)C(=O)NO)nc1` [Compound 16, (S)-2-(4-fluoro-3,5-dimethylbenzyl)-N-hydroxy-6-(((R)-1-(5-methoxypyridin-2-yl)ethyl)amino)hexanamide], which Ki is on record?
Answer: 0.31 nM

Question: For `COc1ccc(CN(C)CCCC[C@@H](Cc2cc(C)c(F)c(Cl)c2)C(=O)NO)nc1` [Compound 32, (S)-2-(3-chloro-4-fluoro-5-methylbenzyl)-N-hydroxy-6-(((5-methoxypyridin-2-yl)methyl)(methyl)amino)hexanamide], which Ki is on record?
Answer: 1.5 nM

Question: `Cc1cc(C[C@H](CCCCN[C@H](CO)c2ccc(F)cn2)C(=O)NO)cc(C)c1F` [Compound 12, (S)-2-(4-fluoro-3,5-dimethylbenzyl)-6-(((S)-1-(5-fluoropyridin-2-yl)-2-hydroxyethyl)amino)-N-hydroxyhexanamide] was tested. Which Ki did it give?
Answer: 0.08 nM

Question: `Cc1cc(C[C@H](CCCCN[C@@H](c2ccc(Cl)cn2)C(C)C)C(=O)NO)cc(Cl)c1F` [Compound 31, (S)-2-(3-chloro-4-fluoro-5-methylbenzyl)-6-(((R)-1-(5-chloropyridin-2-yl)-2-methylpropyl)amino)-N-hydroxyhexanamide] was tested. Which Ki did it give?
Answer: 0.26 nM

Question: With `CO[C@H](C[C@H](CCCCN(C)Cc1ccc(Br)cn1)C(=O)NO)c1ccc(F)cc1` [Compound 43, (S)-6-(((5-bromopyridin-2-yl)methyl)(methyl)amino)-2-((R)-2-(4-fluorophenyl)-2-methoxyethyl)-N-hydroxyhexanamide] as the molecule, how does the Ki read?
Answer: 12.5 nM

Question: `Cc1ccc([C@@H](CO)NCCCC[C@@H](Cc2cc(C)c(F)c(C)c2)C(=O)NO)nc1` [Compound 13, (S)-2-(4-fluoro-3,5-dimethylbenzyl)-N-hydroxy-6-(((S)-2-hydroxy-1-(5-methylpyridin-2-yl)ethyl)amino)hexanamide] was tested. Which Ki did it give?
Answer: 0.07 nM

Question: How did the Ki turn out when `CCc1cc(Cl)cnc1CN(C)CCCC[C@@H](C[C@@H](OC)c1ccc(F)cc1)C(=O)NO` [Compound 44, (S)-6-(((5-chloro-3-ethylpyridin-2-yl)methyl)(methyl)amino)-2-((R)-2-(4-fluorophenyl)-2-methoxyethyl)-N-hydroxyhexanamide] was run?
Answer: 6.7 nM

Question: For `CO[C@H](C[C@H](CCCCN[C@@H](c1ncc(F)cc1F)C(C)C)C(=O)NO)c1ccc(F)cc1` [Compound 52, (S)-6-(((R)-1-(3,5-difluoropyridin-2-yl)-2-methylpropyl)amino)-2-((R)-2-(4-fluorophenyl)-2-methoxyethyl)-N-hydroxyhexanamide], which Ki is on record?
Answer: 2.1 nM

Question: `Cc1cc(N[C@H](CCCCN[C@@H](c2ncc(F)cc2F)C(C)C)C(=O)NO)cc(C)c1F` [Compound 6, (R)-6-(((R)-1-(3,5-difluoropyridin-2-yl)-2-methylpropyl)amino)-2-((4-fluoro-3,5-dimethylphenyl)amino)-N-hydroxyhexanamide] was tested. Which Ki did it give?
Answer: 0.28 nM

Question: For `Cc1cc(C[C@H](CCCCNCc2ccccn2)C(=O)NO)cc(C)c1F` [Compound 9, (S)-2-(4-fluoro-3,5-dimethylbenzyl)-N-hydroxy-6-((pyridin-2-ylmethyl)amino)hexanamide], which Ki is on record?
Answer: 1 nM

Question: `CC[C@@H](NCCCC[C@@H](Nc1cc(C)c(F)c(C)c1)C(=O)NO)c1ccc(F)cn1` [Compound 8, (R)-2-((4-fluoro-3,5-dimethylphenyl)amino)-6-(((R)-1-(5-fluoropyridin-2-yl)propyl)amino)-N-hydroxyhexanamide] was tested. Which Ki did it give?
Answer: 0.57 nM

Question: How did the Ki turn out when `CC[C@@H](NCCCC[C@@H](Cc1cc(C)c(F)c(C)c1)C(=O)NO)c1ncc(F)cc1F` [Compound 25, (S)-6-(((R)-1-(3,5-difluoropyridin-2-yl)propyl)amino)-2-(4-fluoro-3,5-dimethylbenzyl)-N-hydroxyhexanamide] was run?
Answer: 0.12 nM
